Measured values reported in patent US20250222003A1, “PHARMACEUTICAL COMPOSITION FOR TREATING SOLID TUMORS” (Eisai R&D Management Co., Ltd., priority 2021, published 2025).
Where two headings read alike, the source gives them in different places. Marks after values point to notes of the source that are not given here.

Tests used:
[1] = tested on: patients with a solid tumor; test: Suppression of nausea or vomiting associated with administration of Compound A by antiemetics; assay type: in vivo, human
From the text: For subjects of administration that had the gastrointestinal symptoms, nausea or vomiting, the results of administration of various antiemetics were investigated to determine whether they could suppress the occurrence of nausea or vomiting. The antiemetics used were domperidone ([…], Nauzelin tablet), metoclopramide (peripheral D2 receptor antagonist, metoclopramide tablet), ramosetron hydrochloride (5-HT3 receptor antagonist, Nasea tablet), granisetron (5-HT3 receptor antagonist (Kytril tablet), and the like.
The antiemetics were timely administered to 20 subjects of administration that complained of vomiting during Cycle 1.
FIGS. 1 and 2 are graphs showing the relationship between Cmax(Cmax,ss) or AUC (AUC(0-tau),ss) and the vomiting flag for each test subject at the time of CID8. For example, the vomiting flag 3 means a case in which treatment with an antiemetic other than the 5-HT3 receptor antagonist was first attempted but vomiting could not be suppressed, and vomiting could be suppressed when the antiemetic was switched to the 5-HT3 receptor antagonist.
Five additional patients were investigated whether the occurrence of nausea or vomiting, which is an adverse event having a causal relationship with Compound A, could be suppressed. Ramosetron hydrochloride or granisetron hydrochloride (5-HT3 receptor antagonist) was administered to four patients of administration that complained of vomiting during Cycle 1. Of the four patients that complained of vomiting, three patients received granisetron hydrochloride to prevent the gastrointestinal symptoms (nausea, vomiting) associated with administration of Compound A.

[2] = Pharmacokinetics of Compound A, phase I dose-escalation part (plasma); assay type: in vivo, human; details: for AUC(0-t) / Cmax / Tmax / AUC / half-life: human, plasma, oral; for AUC(0-t): read-out: AUC(0-12 h); for half-life: read-out: Effective t1/2 (converted)
Procedure: In the treatment phase, Compound A (an oral formulation containing Compound A) is administered to the subjects of administration in one cycle of 28 days. The subjects continued to receive Compound A until disease progression, development of intolerable side effects, the desire for discontinuation of administration and consent withdrawal by the subjects of administration, or trial discontinuation by the clinical trial client. One cycle is 28 days of administration, and such an abbreviation as “C1D28” indicates the number of cycles and the number of days in the cycle, for example, “C1D28” means the 28th day of cycle 1 (the first cycle). The subjects of administration were hospitalized until the time of […] and took a medical consultation and physical examination at the time of C1D15, and if the principal investigator or sub investigator was judged, from the results, that there were no medical problems, the subjects were allowed to leave the hospital. If administration was to be continued after the completion of the medical consultation and physical examination at the time of C2D1, written consent for continuation was obtained before administration at the time of C2D1.
Tablets containing Compound A are used as Compound A and administered orally repeatedly twice daily (BID). The subjects fasted 2 hours before and 1 hour after administration. The tablets were taken with water and, if possible, at the prescribed time, but if this was not possible, the tablets were taken 8 hours or more after the previous administration.
In the dose-escalation part, blood was collected from the subjects of administration according to the schedule shown in Table 5, and the pharmacokinetics of Compound A was evaluated. In the expansion part, blood was collected from the subjects of administration before the first administration at C1D1 and CID8, 0.5, 1 and 2 hours after the oral administration of Compound A, and before the first administration at C2D1, and the pharmacokinetics of Compound A was evaluated. The data for C1D1 (the first day of the first cycle) corresponds to the results of a single-dose administration, and the data for C1D8 (the eighth day of the first cycle) corresponds to the results after multiple-dose administration for 8 days at 2 doses per 1 day.
a Based on 5 patients; b based on 2 patients; c based on 3 patients. tmax is reported as median (range). All other values are reported as geometric mean (% CV). Parameters with two patients are reported for both patients.

[3] = C1D8, 160 mg BID (n = 2), both patients
[4] = 160 mg, C1D8, 160 mg BID (n = 2), both patients

- Effective t1/2 ([2]; C1D8, 20 mg BID, based on 2 patients, both patients): 18.0 ^b h
- C max, ss [2, 3]: 3.85 µg/mL
- Effective t1/2 [2, 3]: 25.6 h
- t max, ss [2, 3]: 1.00, 1.00 h
- AUC(0-t) ([2]; 10 mg, C1D1, 10 mg BID (n = 3), geometric mean): 0.131 µg·h/mL
- Cmax ([2]; 10 mg, C1D1, 10 mg BID (n = 3), geometric mean, read-out: Cmax): 0.0372 µg/mL
- Tmax ([2]; 10 mg, C1D1, 10 mg BID (n = 3), median): 2 h
- AUC ([2]; 10 mg, C1D8, 10 mg BID (n = 3), geometric mean, read-out: AUC (0-tau), ss): 0.21 µg·h/mL
- Cmax ([2]; 10 mg, C1D8, 10 mg BID (n = 3), geometric mean, read-out: C max, ss): 0.0539 µg/mL
- Tmax ([2]; 10 mg, C1D8, 10 mg BID (n = 3), median): 2 h
- AUC(0-t) ([2]; 15 mg, C1D1, 15 mg BID (n = 4), geometric mean): 0.31 µg·h/mL
- Cmax ([2]; 15 mg, C1D1, 15 mg BID (n = 4), geometric mean, read-out: Cmax): 0.135 µg/mL
- Tmax ([2]; 15 mg, C1D1, 15 mg BID (n = 4), median): 0.75 h
- AUC ([2]; 15 mg, C1D8, 15 mg BID (n = 4), geometric mean, read-out: AUC (0-tau), ss): 0.504 µg·h/mL
- Cmax ([2]; 15 mg, C1D8, 15 mg BID (n = 4), geometric mean, read-out: C max, ss): 0.159 µg/mL
- half-life ([2]; 15 mg, C1D8, 15 mg BID (n = 4), geometric mean): 7.1 h
- Tmax ([2]; 15 mg, C1D8, 15 mg BID (n = 4), median): 0.75 h
- AUC(0-t) ([2]; 20 mg, C1D1, 20 mg BID (n = 3), geometric mean): 0.501 µg·h/mL
- Cmax ([2]; 20 mg, C1D1, 20 mg BID (n = 3), geometric mean, read-out: Cmax): 0.146 µg/mL
- Tmax ([2]; 20 mg, C1D1, 20 mg BID (n = 3), median): 1 h
- AUC ([2]; 20 mg, C1D8, 20 mg BID (n = 3), geometric mean, read-out: AUC (0-tau), ss): 0.866 µg·h/mL
- Cmax ([2]; 20 mg, C1D8, 20 mg BID (n = 3), geometric mean, read-out: C max, ss): 0.278 µg/mL
- Tmax ([2]; 20 mg, C1D8, 20 mg BID (n = 3), median): 0.5 h
- half-life ([2]; 20 mg, C1D8, 20 mg BID, based on 2 patients, both patients): 12.2 h
- AUC(0-t) ([2]; 30 mg, C1D1, 30 mg BID (n = 3), geometric mean): 0.349 µg·h/mL
- Cmax ([2]; 30 mg, C1D1, 30 mg BID (n = 3), geometric mean, read-out: Cmax): 0.105 µg/mL
- Tmax ([2]; 30 mg, C1D1, 30 mg BID (n = 3), median): 2 h
- AUC ([2]; 30 mg, C1D8, 30 mg BID (n = 3), geometric mean, read-out: AUC (0-tau), ss): 0.396 µg·h/mL
- Cmax ([2]; 30 mg, C1D8, 30 mg BID (n = 3), geometric mean, read-out: C max, ss): 0.0683 µg/mL
- Tmax ([2]; 30 mg, C1D8, 30 mg BID (n = 3), median): 2 h
- AUC(0-t) ([2]; 45 mg, C1D1, 45 mg BID (n = 4), geometric mean): 0.865 µg·h/mL
- Cmax ([2]; 45 mg, C1D1, 45 mg BID (n = 4), geometric mean, read-out: Cmax): 0.209 µg/mL
- Tmax ([2]; 45 mg, C1D1, 45 mg BID (n = 4), median): 1 h
- AUC ([2]; 45 mg, C1D8, 45 mg BID (n = 4), geometric mean, read-out: AUC (0-tau), ss): 1.07 µg·h/mL
- Cmax ([2]; 45 mg, C1D8, 45 mg BID (n = 4), geometric mean, read-out: C max, ss): 0.199 µg/mL
- half-life ([2]; 45 mg, C1D8, 45 mg BID (n = 4), geometric mean): 6.59 h
- Tmax ([2]; 45 mg, C1D8, 45 mg BID (n = 4), median): 3 h
- AUC(0-t) ([2]; 80 mg, C1D1, 80 mg BID (n = 3), geometric mean): 0.758 µg·h/mL
- Cmax ([2]; 80 mg, C1D1, 80 mg BID (n = 3), geometric mean, read-out: Cmax): 0.279 µg/mL
- Tmax ([2]; 80 mg, C1D1, 80 mg BID (n = 3), median): 2 h
- AUC ([2]; 80 mg, C1D8, 80 mg BID (n = 3), geometric mean, read-out: AUC (0-tau), ss): 2.1 µg·h/mL
- Cmax ([2]; 80 mg, C1D8, 80 mg BID (n = 3), geometric mean, read-out: C max, ss): 0.737 µg/mL
- half-life ([2]; 80 mg, C1D8, 80 mg BID (n = 3), geometric mean): 17.4 h
- Tmax ([2]; 80 mg, C1D8, 80 mg BID (n = 3), median): 1 h
- AUC(0-t) ([2]; 100 mg, C1D1, 100 mg BID (n = 6), geometric mean): 1.42 µg·h/mL
- Cmax ([2]; 100 mg, C1D1, 100 mg BID (n = 6), geometric mean, read-out: Cmax): 0.443 µg/mL
- Tmax ([2]; 100 mg, C1D1, 100 mg BID (n = 6), median): 0.5 h
- Cmax ([2]; 100 mg, C1D8, 100 mg BID (n = 6), geometric mean, read-out: C max, ss): 0.862 µg/mL
- half-life ([2]; 100 mg, C1D8, 100 mg BID (n = 6), geometric mean): 13 h
- Tmax ([2]; 100 mg, C1D8, 100 mg BID (n = 6), median): 1 h
- AUC ([2]; 100 mg, C1D8, 100 mg BID, based on 5 patients, geometric mean, read-out: AUC (0-tau), ss): 2.7 µg·h/mL
- AUC(0-t) ([2]; 120 mg, C1D1, 120 mg BID (n = 3), geometric mean): 1.91 µg·h/mL
- Cmax ([2]; 120 mg, C1D1, 120 mg BID (n = 3), geometric mean, read-out: Cmax): 0.557 µg/mL
- Tmax ([2]; 120 mg, C1D1, 120 mg BID (n = 3), median): 2 h
- AUC(0-t) ([2]; 120 mg, C1D1, 120 mg BID (n = 8, incl. additional cases), geometric mean): 1.91 µg·h/mL
- Cmax ([2]; 120 mg, C1D1, 120 mg BID (n = 8, incl. additional cases), geometric mean, read-out: Cmax): 0.557 µg/mL
- Tmax ([2]; 120 mg, C1D1, 120 mg BID (n = 8, incl. additional cases), median): 2 h
- AUC ([2]; 120 mg, C1D8, 120 mg BID (n = 3), geometric mean, read-out: AUC (0-tau), ss): 2.46 µg·h/mL
- Cmax ([2]; 120 mg, C1D8, 120 mg BID (n = 3), geometric mean, read-out: C max, ss): 0.737 µg/mL
- half-life ([2]; 120 mg, C1D8, 120 mg BID (n = 3), geometric mean): 5.49 h
- Tmax ([2]; 120 mg, C1D8, 120 mg BID (n = 3), median): 1 h
- AUC ([2]; 120 mg, C1D8, 120 mg BID (n = 8), based on n = 7 subjects, geometric mean, read-out: AUC (0-tau), ss): 2.46 µg·h/mL
- Cmax ([2]; 120 mg, C1D8, 120 mg BID (n = 8), based on n = 7 subjects, geometric mean, read-out: C max, ss): 0.751 µg/mL
- Tmax ([2]; 120 mg, C1D8, 120 mg BID (n = 8), based on n = 7 subjects, median): 1 h
- AUC ([2]; 160 mg BID, C1D8, read-out: lowest value of AUC(0-tau),ss of the subjects in which vomiting could not be suppressed even after the 5-HT3 receptor antagonist): 9.06 µg·h/mL
- Tmax ([2]; 160 mg, C1D1, 160 mg BID (n = 2), both patients): 0.5 h
- Tmax [2, 4]: 1 h
- Cmax ([2]; 160 mg, C1D8, 160 mg BID (n = 2), both patients, read-out: C max, ss): 2.98 µg/mL
- half-life [2, 4]: 17.5 h
- AUC ([2]; C1D8, read-out: highest value of AUC(0-tau),ss of the subjects in which vomiting could be suppressed by the 5-HT3 receptor antagonist): 7.64 µg·h/mL
SMILES: C=CCN1CC(=O)N2[C@@H](Cc3ccc(O)cc3F)C(=O)N(Cc3cccc(N4CC(N5CCN(CC)CC5)C4)n3)C[C@@H]2N1C(=O)NCc1ccccc1 [Compound A, (6S,9aS)—N-benzyl-8-({6-[3-(4-ethylpiperazin-1-yl)azetidin-1-yl]pyridin-2-yl}methyl)-6-(2-fluoro-4-hydroxybenzyl)-4,7-dioxo-2-(prop-2-en-1-yl)hexahydro-2H-pyrazino[2,1-c][1,2,4]triazine-1 (6H)-carboxamide]
- Vomiting flag 0, N: neither nausea nor vomiting observed, or antiemetics not required ([1]; Table 10, before additional cases): 10
- Vomiting flag 0, N: neither nausea nor vomiting observed, or antiemetics not required ([1]; Table 14, entire dose-escalation part incl. additional cases): 11
- relation of exposure to dosage ([2]; 10-160 mg BID, Tables 6 and 7): exposure amount increased as the dosage of Compound A increased
